This is an account of results in patent publication US9125913B2, “Bcl-2-selective apoptosis-inducing agents for the treatment of cancer and immune diseases” (AbbVie Inc., priority 2008, dated 2015).

The test system of one assay is GST-Bcl-2. Nature of the assay: TR-FRET binding assay, Bcl-2. The settings on record: TR-FRET Ki values. The method, boiled down:
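Compounds serially diluted in DMSO from 50 μM (2× starting concentration, 10% DMSO), mixed with GST-tagged protein, F-Bak peptide probe and Tb-labeled antibody, incubated 3 h at room temperature.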
For orientation: In TR-FRET formats the signal depends on donor and acceptor labels being close together.

For the next assay, the system named is FL5.12/Bcl-2 cells. Nature of the assay: FL5.12/Bcl-2 cell viability assay. Particulars: ratio of canine platelet EC50 to FL5.12/Bcl-2 EC50. The format is cell-based, murine. The text has this:
FL5.12 is an IL-3 dependent prolymphocytic murine cell line that undergoes apoptosis upon IL-3 withdrawal as a result of the upregulation of pro-apoptotic Bcl-2 proteins such as Bim and Puma. Stable overexpression of anti-apoptotic Bcl-2 protein (FL5.12/Bcl-2) protects against apoptosis induced by IL-3 withdrawal by sequestration of Bim and Puma. […] The ability of compounds to kill FL5.12/Bcl-2 cells upon IL-3 withdrawal is a direct measure of the compounds' ability to inhibit anti-apoptotic Bcl-2 protein function.
Wild type FL5.12/Bcl-2 overexpressing stable transfectants were cultured in RPMI-1640 supplemented with 2 mM L-glutamine, 10% FBS, 1 mM sodium pyruvate, 2 mM HEPES, 1% penicillin/streptomycin (Invitrogen), 57 μM β-ME, and 10% WEHI-3B conditioned medium (source of IL-3) and maintained at 37° C. containing 5% CO2. 1×10^6 cells/ml were washed 1×PBS and resuspended in medium not supplemented with 10% WEHI-3B for 48 hrs prior to cytotoxicity assays. Cells were then treated for an additional 24 hrs in the presence of various concentrations of the indicated compounds. Cell viability was assessed by CellTitre Glo assay (Promega Corp.) according to the manufacturer's recommendations.

Take `CN1CCC(Nc2ccc(S(=O)(=O)NC(=O)c3ccc(N4CCN(CC5=C(c6ccc(Cl)cc6)CC(C)(C)OC5)CC4)cc3Oc3cccc4[nH]ccc34)cc2[N+](=O)[O-])CC1` [Example 145, 4-(4-{[4-(4-chlorophenyl)-6,6-dimethyl-5,6-dihydro-2H-pyran-3-yl]methyl}piperazin-1-yl)-2-(1H-indol-4-yloxy)-N-({4-[(1-methylpiperidin-4-yl)amino]-3-nitrophenyl}sulfonyl)benzamide]: the “Binding selectivity ratio (Bcl-XL Ki/Bcl-2 Ki)” value (from here on “Binding selectivity ratio”) in the assay with GST-Bcl-2 stood at 401. Moreover, the “Selectivity Ratio (Platelet EC50/FL5.12/Bcl-2 EC50)” value in the assay on FL5.12/Bcl-2 cells came to 730.

With `CC(C)N(CCOc1ccc(-c2ccc(Cl)cc2)c(CN2CCN(c3ccc(C(=O)NS(=O)(=O)c4ccc(NCC5CCOCC5)c([N+](=O)[O-])c4)c(Oc4ccccc4)c3)CC2)c1)C(C)C` [Example 139, 4-[4-({4′-chloro-4-[2-(diisopropylamino)ethoxy]-1,1′-biphenyl-2-yl}methyl)piperazin-1-yl]-N-({3-nitro-4-[(tetrahydro-2H-pyran-4-ylmethyl)amino]phenyl}sulfonyl)-2-phenoxybenzamide], the “Binding selectivity ratio” value in the assay with GST-Bcl-2 amounted to 103.1. Moreover, the “Selectivity Ratio (Platelet EC50/FL5.12/Bcl-2 EC50)” value in the assay on FL5.12/Bcl-2 cells was 841.

As for `O=C(NS(=O)(=O)c1ccc(NCCCN2CCOCC2)c([N+](=O)[O-])c1)c1ccc(N2CCN(Cc3ccccc3-c3ccc(Cl)cc3)CC2)cc1Oc1ccccc1` [Example 155, 4-{4-[(4′-chloro-1,1′-biphenyl-2-yl)methyl]piperazin-1-yl}-N-({4-[(3-morpholin-4-ylpropyl)amino]-3-nitrophenyl}sulfonyl)-2-phenoxybenzamide], the “Binding selectivity ratio” value with GST-Bcl-2 is recorded as 77.8. For the same compound, in the assay on FL5.12/Bcl-2 cells, the “Selectivity Ratio (Platelet EC50/FL5.12/Bcl-2 EC50)” value is reported as over 119.

As for `CN(C)CCCNc1ccc(S(=O)(=O)NC(=O)c2ccc(N3CCN(CC4=C(c5ccc(Cl)cc5)CC(C)(C)CC4)CC3)cc2Oc2cccc3[nH]ccc23)cc1[N+](=O)[O-]` [Example 57, 4-(4-{[2-(4-chlorophenyl)-4,4-dimethylcyclohex-1-en-1-yl]methyl}piperazin-1-yl)-N-[(4-{[3-(dimethylamino)propyl]amino}-3-nitrophenyl)sulfonyl]-2-(1H-indol-4-yloxy)benzamide], the “Binding selectivity ratio” value in the assay on GST-Bcl-2 is given as 68.7. For the same compound, in the assay with FL5.12/Bcl-2 cells, the “Selectivity Ratio (Platelet EC50/FL5.12/Bcl-2 EC50)” value stood at 1077.

Regarding `CN1CCC(CNc2ccc(S(=O)(=O)NC(=O)c3ccc(N4CCN(CC5=C(c6ccc(Cl)cc6)CC(C)(C)CC5)CC4)cc3Oc3cccc4[nH]ccc34)cc2[N+](=O)[O-])CC1` [Example 105, 4-(4-{[2-(4-chlorophenyl)-4,4-dimethylcyclohex-1-en-1-yl]methyl}piperazin-1-yl)-2-(1H-indol-4-yloxy)-N-[(4-{[(1-methylpiperidin-4-yl)methyl]amino}-3-nitrophenyl)sulfonyl]benzamide], the “Binding selectivity ratio” value with GST-Bcl-2 is on record as 62.7. In addition, in the assay on FL5.12/Bcl-2 cells, the “Selectivity Ratio (Platelet EC50/FL5.12/Bcl-2 EC50)” value came out at 2262.

Consider `CN(C)CCCNc1ccc(S(=O)(=O)NC(=O)c2ccc(N3CCN(CC4=C(c5ccc(Cl)cc5)CC(C)(C)CC4)CC3)cc2Oc2ccc3[nH]ccc3c2)cc1C#N` [Example 172, 4-(4-{[2-(4-chlorophenyl)-4,4-dimethylcyclohex-1-en-1-yl]methyl}piperazin-1-yl)-N-[(3-cyano-4-{[3-(dimethylamino)propyl]amino}phenyl)sulfonyl]-2-(1H-indol-5-yloxy)benzamide], for which the “Binding selectivity ratio” value in the assay on GST-Bcl-2 worked out at 32.1. In addition, the “Selectivity Ratio (Platelet EC50/FL5.12/Bcl-2 EC50)” value in the assay with FL5.12/Bcl-2 cells is recorded as over 257.

As for `O=C(NS(=O)(=O)c1ccc(NCC2CCOCC2)c([N+](=O)[O-])c1)c1ccc(N2CCN(Cc3ccccc3-c3ccc(Cl)cc3)CC2)cc1Oc1cccc2[nH]ccc12` [Example 45, 4-{4-[(4′-chloro-1,1′-biphenyl-2-yl)methyl]piperazin-1-yl}-2-(1H-indol-4-yloxy)-N-({3-nitro-4-[(tetrahydro-2H-pyran-4-ylmethyl)amino]phenyl}sulfonyl)benzamide], in the assay on GST-Bcl-2, the “Binding selectivity ratio” value is given as over 797.1. Also, in the assay on FL5.12/Bcl-2 cells, the “Selectivity Ratio (Platelet EC50/FL5.12/Bcl-2 EC50)” value is on record as over 360.
